Results: patent publication US12180226B2, “Spirotricycle RIPK1 inhibitors and methods of uses thereof” (Merck Sharp & Dohme LLC, priority 2021, dated 2024)
Structures can show the parent of a compound that is named as a salt.

Molecular target: RIPK1 (recombinant GST-RIPK1 kinase domain, residues 1-327) (Homo sapiens (Human), UniProt Q13546)
Test: RIPK1-ADP-Glo Enzymatic Assay
Type: biochemical
Conditions: ADP-Glo; 25 nM GST-RIPK1, 300 μM ATP; assay lower limit ~25 nM; read-out: RIPK1 V0 Ec50
Summary of the method: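 Using dephosphorylated MBP (3 μM) as substrate and 300 μM ATP, 25 nM baculovirus-produced enzyme was reacted for 150 min after a 30-min compound pre-incubation. Luminescent ADP detection followed; lower confidence limit ~25 nM.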

RIPK1 (recombinant GST-RIPK1 kinase domain, residues 1-327), sequence (Q13546 1-327): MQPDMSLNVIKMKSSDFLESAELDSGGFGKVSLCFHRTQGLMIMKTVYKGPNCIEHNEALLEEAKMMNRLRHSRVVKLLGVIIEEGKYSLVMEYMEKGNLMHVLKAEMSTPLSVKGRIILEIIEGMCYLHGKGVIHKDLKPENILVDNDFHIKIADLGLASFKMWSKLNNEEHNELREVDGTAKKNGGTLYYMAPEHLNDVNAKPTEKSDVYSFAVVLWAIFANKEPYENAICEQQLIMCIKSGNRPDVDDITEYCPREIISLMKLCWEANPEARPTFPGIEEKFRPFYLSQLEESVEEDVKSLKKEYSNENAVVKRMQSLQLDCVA

SMILES | EC50 [nM]
CC1CN(C(=O)c2ccccc2)CCC12O[C@@H]1CC[C@@H](c3cc(F)cc(F)c3)N1C2=O (single isomer, unassigned) [Example 2.5, (3[S or R],4[R or S], 5′S,7a′R)-1-benzoyl-5′-(3,5-difluorophenyl)-3-methyltetrahydro-3′H-spiro[piperidine-4,2′-pyrrolo[2,1-b]oxazol]-3′-one] | 40.7
O=C1N2[C@@H](CC[C@H]2c2ccccc2)OC12CCN(c1cc(-c3ccsc3)ccn1)CC2 [Example 4.170, (5′S,7a′R)-5′-phenyl-1-[4-(thiophen-3-yl)pyridin-2-yl]tetrahydro-3′H-spiro[piperidine-4,2′-pyrrolo[2,1-b] [1,3]oxazol]-3′-one] | < 25
O=C(c1cc(Cl)ccc1F)N1CCC2(CC1)O[C@@H]1CC[C@@H](c3ccccc3F)N1C2=O [Example 1.14, (5′S,7a′R)-1-(5-chloro-2-fluorobenzoyl)-5′-(2-fluorophenyl)tetrahydro-3′H-spiro[piperidine-4,2′-pyrrolo[2,1-b]oxazol]-3′-one] | < 25
O=C1N2[C@H](OC13CCN(c1ccnc4ccnn14)CC3)[C@H](O)C[C@H]2c1ccccc1 [Example 4.248, (5′S,7′R,7a′R)-7′-hydroxy-5′-phenyl-1-(pyrazolo[1,5-a]pyrimidin-7-yl)tetrahydro-3′H-spiro[piperidine-4,2′-pyrrolo[2,1-b] [1,3]oxazol]-3′-one] | 33.7
C#Cc1ccccc1C(=O)N1CCC2(CC1)O[C@@H]1CC[C@@H](c3cc(F)cc(F)c3)N1C2=O [Example 5.23, (5′S,7a′R)-5′-(3,5-difluoro-phenyl)-1-(2-ethynyl-benzoyl)tetrahydro-3′H-spiro[piperidine-4,2′-pyrrolo[2,1-b]oxazol]-3′-one] | 143
Cc1cc(F)c(C(=O)N2CCC3(CC2)O[C@@H]2CC[C@@H](c4cc(F)cc(F)c4)N2C3=O)cc1F [Example 5.6, (5′S,7a′R)-1-(2,5-difluoro-4-methylbenzene-1-carbonyl)-5′-(3,5-difluoro-phenyl)tetrahydro-3′H-spiro[piperidine-4,2′-pyrrolo[2,1-b][1,3]oxazol]-3′-one] | < 25
N#Cc1cc(N2CC3(C2)O[C@@H]2CC[C@@H](c4cc(F)cc(F)c4)N2C3=O)ncn1 [Example 4.118, 6-((5′S,7a′R)-5′-(3,5-difluorophenyl)-3′-oxotetrahydro-3′H-spiro[azetidine-3,2′-pyrrolo[2,1-b]oxazol]-1-yl)pyrimidine-4-carbonitrile] | 228
COc1nc(N2CCC3(CC2)O[C@@H]2CC[C@@H](c4cc(F)cc(F)c4)N2C3=O)ncc1C#N [Example 4.38, 2-[(5′S,7a′R)-5′-(3,5-difluorophenyl)-3′-oxotetrahydro-1H,3′H-spiro[piperidine-4,2′-pyrrolo[2,1-b] [1,3]oxazol]-1-yl]-4-methoxypyrimidine-5-carbonitrile] | 12
Cc1ccc(F)c(C(=O)N2CCC3(CC2)O[C@@H]2CC[C@@H](c4cc(F)cc(F)c4)N2C3=O)n1 [Example 6.104, (5′S,7a′R)-5′-(3,5-difluorophenyl)-1-(3-fluoro-6-methylpyri-dine-2-carbonyl)tetra-hydro-3′H-spiro[piperi-dine-4,2′-pyrrolo[2,1-b][1,3]oxazol]-3′-one] | 32.2
Cn1nc(C(F)(F)F)cc1-c1ccc(N2CCC3(CC2)O[C@@H]2CC[C@@H](c4ccccc4)N2C3=O)n2ncnc12 [Example 21.20, (5′S,7a′R)-1-{8-[1-methyl-3-(trifluoromethyl)-1H-pyrazol-5-yl][1,2,4]triazolo[1,5-a]pyridin-5-yl}-5′-phenyltetrahydro-3′H-spiro[piperidine-4,2′-pyrrolo[2,1-b][l,3]oxazol]-3′-one] | < 25
O=C(c1ccsc1-c1ncccn1)N1CCC2(CC1)O[C@@H]1CC[C@@H](c3cc(F)cc(F)c3)N1C2=O [Example 6.36, (5′S,7a′R)-5′-(3,5-difluorophenyl)-1-[2-(pyrimidin-2-yl)thio-phene-3-carbonyl] tetrahydro-3′H-spiro [piperidine-4,2′-pyrrolo[2,1-b][1,3]oxazol]-3′-one] | 851
Cc1ncccc1C(=O)N1CCC2(CC1)O[C@@H]1CC[C@@H](c3cc(F)cc(F)c3)N1C2=O [Example 6.52, (5′S,7a′R)-5′-(3,5-difluorophenyl)-1-(2-methylpyridine-3-carbonyl)tetrahydro-3′H-spiro[piperidine-4,2′-pyrrolo[2,1-b] [1,3]oxazol]-3′-one] | 528
O=C(c1cnon1)N1CCC2(CC1)O[C@@H]1CC[C@@H](c3cc(F)cc(F)c3)N1C2=O [Example 5.46, (5′S,7a′R)-5′-(3,5-difluoro-phenyl)-1-(1,2,5-oxazole-3-carbonyl)tetrahydro-3′H-spiro[piperidine-4,2′-pyrrolo-[2,1-b]oxazol]-3′-one] | 444
Cc1cnn(-c2cc(N3CCC4(CC3)O[C@@H]3CC[C@@H](c5ccccc5)N3C4=O)ncn2)c1 [Example 4.176, (5′S,7a′R)-1-[6-(4-methyl-1H-pyrazol-1-yl)pyrimidin-4-yl]-5′-phenyltetrahydro-3′H-spiro[piperidine-4,2′-pyrrolo[2,1-b] [1,3]oxazol]-3′-one] | 48.8
CCOc1cccc(C(=O)N2CCC3(CC2)O[C@@H]2CC[C@@H](c4cc(F)cc(F)c4)N2C3=O)n1 [Example 6.83, (5′S,7a′R)-5′-(3,5-difluorophenyl)-1-(6-ethoxypyridine-2-carbonyl)tetrahydro-3′H-spiro[piperidine-4,2′-pyrrolo[2,1-b] [1,3]oxazol]-3′-one] | 31.8
Cc1nc(N2CCC3(CC2)O[C@@H]2CC[C@@H](c4cc(F)cc(F)c4)N2C3=O)ncc1OC(F)F [Example 4.58, (5′S,7a′R)-1-[5-(difluoromethoxy)-4-methylpyrimidin-2-yl]-5′-(3,5-difluorophenyl)tetrahydro-3′H-spiro[piperidine-4,2′-pyrrolo[2,1-b] [1,3]oxazol]-3′-one] | 45.9
O=C(c1cc2ccccn2c1)N1CCC2(CC1)O[C@@H]1CC[C@@H](c3cc(F)cc(F)c3)N1C2=O [Example 5.73, (5′S,7a′R)-5′-(3,5-difluoro-phenyl)-1-(indolizine-2-carbonyl)tetrahydro-3′H-spiro[piperidine-4,2′-pyrrolo[2,1-b]oxazol]-3′-one] | < 25
Cc1nnc(C(=O)N2CCC3(CC2)O[C@@H]2CC[C@@H](c4cc(F)cc(F)c4)N2C3=O)o1 [Example 5.76, (5′S,7a′R)-5′-(3,5-difluoro-phenyl)-1-(5-methyl-1,3,4-oxadiazole-2-carbonyl)-tetrahydro-3′H-spiro[piperi-dine-4,2′-pyrrolo[2,1-b] [1,3]oxazol]-3′-one] | 924
O=C(c1cc(F)ccc1F)N1CCC2(O[C@@H]3CC[C@@H](c4ccccc4)N3C2=O)C(F)C1 (stereo partly shown) [Example 6.112] | < 25
CS(=O)(=O)C1CN(C(=O)c2nc(N3CCC4(CC3)O[C@@H]3CC[C@@H](c5cc(F)cc(F)c5)N3C4=O)ncc2F)C1 [Example 7.9, (5′S,7a′R)-5′-(3,5-difluorophenyl)-1-{5-fluoro-4-[3-(methylsulfonyl)azetidine-1-carbonyl]pyrimidin-2-yl}tetrahydro-3′H-spiro[piperidine-4,2′-pyrrolo[2,1-b][1,3]oxazol]-3′-one] | 72.6
O=C(c1nc2ccncc2s1)N1CCC2(CC1)O[C@@H]1CC[C@@H](c3cc(F)cc(F)c3)N1C2=O [Example 6.23, (5′S,7a′R)-5′-(3,5-difluorophenyl)-1-([1,3]thiazolo[5,4-c]-pyridine-2-carbonyl) tetrahydro-3′H-spiro [piperidine-4,2′-pyrrolo[2,1-b][1,3]oxazol]-3′-one] | 96.4
O=C1N2[C@@H](CC[C@H]2c2ccccc2)OC12CCN(c1cccc3ncnn13)CC2F (single isomer, unassigned) [Example 13.18, (3[S or R], 4 [R or S], 5′S,7a′R)-1-([1,2,4]triazolo[1,5-a]pyridin-5-yl)-3-fluoro-5′-phenyltetrahydro-3′H-spiro[piperidine-4,2′-pyrrolo[2,1-b]oxazol]-3′-one, TFA salt] | < 25
N#Cc1ccccc1CN1CCC2(CC1)O[C@@H]1CC[C@@H](c3cc(F)cc(F)c3)N1C2=O [Example 22.3, 2-{[(5′S,7a′R)-5′-(3,5-difluorophenyl)-3′-oxotetrahydro-1H,3′H-spiro[piperidine-4,2′-pyrrolo[2,1-b][1,3]oxazol]-1-yl]methyl}benzonitrile] | 807
N#Cc1cscc1[C@@H]1CC[C@H]2OC3(CCN(C(=O)c4ccccc4)CC3)C(=O)N21 [Example 17.13, 4-((5′S,7a′R)-1-benzoyl-3′-oxotetrahydro-3′H-spiro[piperidine-4,2′-pyrrolo[2,1-b]oxazol]-5′-yl)thiophene-3-carbonitrile] | 208
Cc1cc(F)c(C(=O)N2CCC3(CC2)O[C@@H]2CC[C@@H](c4ccccc4)N2C3=O)cc1F [Example 5.12, (5′S,7a′R)-1-(2,5-difluoro-4-methylbenzene-1-car-bonyl)-5′-phenyltetra-hydro-3′H-spiro[piperi-dine-4,2′-pyrrolo[2,1-b] [1,3]oxazol]-3′-one] | < 25
N#Cc1cn[nH]c1C(=O)N1CCC2(CC1)O[C@@H]1CC[C@@H](c3cc(F)cc(F)c3)N1C2=O [Example 5.40, 5-((5′S,7a′R)-5′-(3,5-difluorophenyl)-3′-oxo-tetrahydro-3′H-spiro [piperidine-4,2′-pyrrolo-[2,1-b]oxazole]-1-carbon-yl)-1H-pyrazole-4-car-bonitrile] | 459
O=C(c1cc2ccccc2o1)N1CCC2(CC1)O[C@@H]1CC[C@@H](c3cc(F)cc(F)c3)N1C2=O [Example 5.69] | 45.3
O=C(c1ccsc1-n1nccn1)N1CCC2(CC1)O[C@@H]1CC[C@@H](c3cc(F)cc(F)c3)N1C2=O [Example 6.68, (5′S,7a′R)-5′-(3,5-difluorophenyl)-1-[2-(2H-1,2,3-triazol-2-yl)thiophene-3-carbonyl]tetrahydro-3′H-spiro[piperidine-4,2′-pyrrolo[2,1-b] [1,3]oxazol]-3′-one] | 212
